Molecular target: T1, Oxysterols receptor LXR-beta (Homo sapiens) (UniProt P55055)
T1 sequence (whole entry): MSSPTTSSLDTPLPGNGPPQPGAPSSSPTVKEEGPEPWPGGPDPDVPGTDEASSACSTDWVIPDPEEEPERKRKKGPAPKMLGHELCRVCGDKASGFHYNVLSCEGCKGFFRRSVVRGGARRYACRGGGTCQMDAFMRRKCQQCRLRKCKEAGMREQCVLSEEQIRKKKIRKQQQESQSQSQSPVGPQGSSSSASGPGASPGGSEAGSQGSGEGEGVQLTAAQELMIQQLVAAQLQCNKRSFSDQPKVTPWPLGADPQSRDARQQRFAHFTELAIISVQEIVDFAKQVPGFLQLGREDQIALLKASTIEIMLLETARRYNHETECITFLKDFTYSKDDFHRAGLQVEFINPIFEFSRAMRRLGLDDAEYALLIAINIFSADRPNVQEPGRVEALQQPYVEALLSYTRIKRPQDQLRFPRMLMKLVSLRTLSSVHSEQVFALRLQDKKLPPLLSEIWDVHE
Test: Agonist activity at human LXRbeta expressed in CV1 cells after 20 hrs by luciferase reporter co-transfection assay relative to control
Format: cell-based
Conditions: CV-1

Compound	Efficacy [%]
Cc1nc(C(F)(F)F)c(Cl)n1-c1ccc(-c2cc(F)c(CO)c(S(C)(=O)=O)c2)cc1-n1nncc1-c1ccc(OC(F)(F)F)cc1	116
Cc1nc(C(F)(F)F)cn1-c1ccc(-c2cccc(S(C)(=O)=O)c2)cc1-n1nncc1Cc1cccc(Cl)c1	100
Cc1nc(C(F)(F)F)cn1-c1ccc(-c2cc(F)c(CO)c(S(C)(=O)=O)c2)cc1-c1nc(C(C)C)oc1-c1ccc(OC(F)(F)F)cc1	75
Cc1nc(C(F)(F)F)cn1-c1c(F)cc(-c2cccc(S(C)(=O)=O)c2)cc1-n1nncc1-c1ccc(Cl)cc1	85
